In patent publication US20090137612A1, “Treatment with combined use of oxypurines and ascorbate to prevent and mitigate iron-catalized oxidative damage in Alzheimer's disease and other neurodegenerative disorders” (priority 2007, published 2009):

Legend:
[1] = Inhibition of o-dianisidine oxidation induced by reaction of ferrous sulfate with hydrogen peroxide (colorimetric, 460 nm); type: biochemical
Experimental: (§1) All chemicals used in the following first 4 EXAMPLES for this invention were of analytical quality. A colorimeter was used to detect peroxidations of o-dianisidine, 9 mg/dL, as chromogenic hydrogen donor when oxidized, with its absorbance measured at 460 nm in saline solutions (140 mM NaCl, buffered by 3 mM phosphate salts at pH 7.4). Ferrous sulfate or human hemoglobin was added to control and to test solutions containing uric acid or ascorbic acid shortly before the addition of hydrogen peroxide, with oxidized molecules of dianisidine measured promptly. The saline solutions were mimetic of cerebrospinal fluid except devoid of possible confounding other molecules.
Uric Acid Inhibition of Substrate Oxidations Induced by Reaction of Ferrous Sulfate (9.8 Micromolar) with 20 Micromolar Hydrogen Peroxide
Comment: All incubations were done at 25-28° Celsius.
Ascorbic Acid Inhibition at 1.6 mg/dl of Substrate Oxidation Induced by Reaction of Ferrous Sulfate (9.8 Micromolar) with 20 Micromolar Hydrogen Peroxide

human hemoglobin = human hemoglobin (Homo sapiens, UniProt P68871+P69905); test: Inhibition of o-dianisidine oxidation by human hemoglobin in reaction with hydrogen peroxide (colorimetric, 460 nm); type: biochemical; settings: hemoglobin 12 mg/dl, 20 micromolar H2O2
Experimental: as §1
Uric Acid Inhibition of Substrate Oxidation by Human Hemoglobin Level of 12 mg/dl in Reaction with 20 Micromolar Hydrogen Peroxide
Ascorbic Acid Inhibition at 1.6 mg/dl of Substrate Oxidation Induced by Human Hemoglobin Level of 12 mg//dl in Reaction with 20 Micromolar Hydrogen Peroxide
Comments: The inhibition remained virtually complete in EXAMPLE 4 at 10 minutes of continued exposure to the hydrogen peroxide, in spite of greater absorbance increase or oxidation in the control solutions from continuing reaction of the peroxide with the iron that resided in the hemoglobin. […] He used higher concentrations of hemoglobin and hydrogen peroxide (e.g. 0.67 or 0.8 mM of hydrogen peroxide) in phosphate-saline buffer with 2 hour incubations at 37° C.

[2] = intravenously, healthy humans; Chamorro A et al., 2004; cited from earlier work
[3] = known in the art, in words; cited from earlier work
[4] = cited from earlier work; for elevating human serum uric acid levels when given orally: humans (normal adults and gouty individuals), literature
[5] = Ascorbate 1.6 mg/dL, 5 min. after H2O2, n = 4
[6] = Ascorbate 1.6 mg/dL, 10 min. after H2O2, n = 4
[7] = Urate 0.5 mg/dL, 5 min. after H2O2, n 4
[8] = Urate 0.5 mg/dL, 10 min. after H2O2, n 4
[9] = Urate 6.0 mg/dL, 10 min. after H2O2, n 4

Chain of human hemoglobin (P69905 2-142 limits assumed): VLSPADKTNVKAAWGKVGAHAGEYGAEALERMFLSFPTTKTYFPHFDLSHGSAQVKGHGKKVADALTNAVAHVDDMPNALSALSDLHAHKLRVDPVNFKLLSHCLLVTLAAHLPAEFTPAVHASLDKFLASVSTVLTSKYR
Chain of human hemoglobin (P68871 2-147 limits assumed): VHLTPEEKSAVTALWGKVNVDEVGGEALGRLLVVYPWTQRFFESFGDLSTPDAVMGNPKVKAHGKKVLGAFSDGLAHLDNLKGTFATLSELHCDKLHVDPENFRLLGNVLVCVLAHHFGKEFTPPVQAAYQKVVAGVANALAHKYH

O=C1O[C@H]([C@@H](O)CO)C(O)=C1O [Ascorbate, L-ascorbic acid]
Absorbance Increase ([1]; Ascorbate 1.6 mg/dL, 5 min. after H2O2, mean ± s.e.m., n = 4): 0.000 ± 0.000
% Inhibition [1, 5]: 100.0 ± 0.0 %
% Inhibition [1, 6]: 100.0 ± 0.0 %
Absorbance Increase [1, 6]: 0.000 ± 0.000
% Inhibition (human hemoglobin; [5]): 100.0 ± 0.0 %
Absorbance Increase (human hemoglobin; [5]): 0.000 ± 0.000
% Inhibition (human hemoglobin; [6]): 99.8 ± 1.2 %
Absorbance Increase (human hemoglobin; [6]): 0.001 ± 0.008

O=c1[nH]c(=O)c2[nH]c(=O)[nH]c2[nH]1 [Urate, 2,6,8-oxypurine]
tolerability of intravenous administration [2]: without untoward effects
solubility in water [3]: difficulty soluble in water
elevating human serum uric acid levels when given orally [4]: ineffective
Absorbance Increase ([1]; Urate 0.5 mg/dL, 5 min. after H2O2, 460 nm, mean ± s.e.m., n 5): 0.030 ± 0.003
% Inhibition ([1]; Urate 0.5 mg/dL, 5 min. after H2O2, mean ± s.e.m., n 5): 36.8 ± 5.3 %
Absorbance Increase ([1]; Urate 0.5 mg/dL, 10 min. after H2O2, 460 nm, mean ± s.e.m., n 5): 0.034 ± 0.017
% Inhibition ([1]; Urate 0.5 mg/dL, 10 min. after H2O2, mean ± s.e.m., n 5): 26.5 ± 5.5 %
Absorbance Increase ([1]; Urate 6.0 mg/dL, 5 min. after H2O2, 460 nm, pH 7.4 saline, 25-28° Celsius, mean ± s.e.m., n 5): 0.012 ± 0.003
% Inhibition ([1]; Urate 6.0 mg/dL, 5 min. after H2O2, mean ± s.e.m., n 5): 75.3 ± 4.8 %
Absorbance Increase ([1]; Urate 6.0 mg/dL, 10 min. after H2O2, 460 nm, mean ± s.e.m., n 5): 0.014 ± 0.003
% Inhibition ([1]; Urate 6.0 mg/dL, 10 min. after H2O2, mean ± s.e.m., n 5): 70.9 ± 4.5 %
% Inhibition (human hemoglobin; [7]): 50.7 ± 7.56 %
Absorbance Increase (human hemoglobin; [7]): 0.028 ± 0.004
% Inhibition (human hemoglobin; [8]): 38.8 ± 3.25 %
Absorbance Increase (human hemoglobin; [8]): 0.052 ± 0.009
Absorbance Increase (human hemoglobin; Urate 6.0 mg/dL, 5 min. after H2O2, mean ± s.e.m., n 4): 0.006 ± 0.002
% Inhibition (human hemoglobin; Urate 6.0 mg/dL, 5 min. after H2O2, n 4): 90.6 ± 0.90 %
% Inhibition (human hemoglobin; [9]): 80.3 ± 3.54 %
Absorbance Increase (human hemoglobin; [9]): 0.016 ± 0.005

O=c1[nH]cnc2nc[nH]c12 [hypoxanthine]
solubility in water [3]: more soluble in water
raise of serum or plasma uric acid level ([4]; about 0.9 gram given orally (0.1 mmole/kg), persons of near 70 kg, Clifford A J et al., 1976): about 2.4 mg/dL
elevating human serum uric acid levels when given orally [4]: effectively raise serum uric acid levels

O=c1[nH]c(=O)c2[nH]cnc2[nH]1 [xanthine]
solubility in water [3]: difficulty soluble in water
elevating human serum uric acid levels when given orally [4]: not
